Consider 8 molecules from ChEMBL document CHEMBL5352428, “Covalent inhibitors of bacterial peptidoglycan biosynthesis enzyme MurA with chloroacetamide warhead” (Eur J Med Chem, 2022).

The target of series [1] is UDP-N-acetylglucosamine 1-carboxyvinyltransferase (Escherichia coli K-12) (UniProt P0A749). The series is described as follows: Irreversible inhibition of recombinant Escherichia coli MurA expressed in Escherichia coli NiCo21 assessed as residual activity using UNAG and PEP as substrate at 1 mM preincubated for 30 mins in presence of UNAG followed by PEP substrate addition and measured after 15 mins by malachite green based colorimetric assay. To be noted: time 45.0 min.
Chain of UDP-N-acetylglucosamine 1-carboxyvinyltransferase (Escherichia coli K-12) (P0A749 whole entry): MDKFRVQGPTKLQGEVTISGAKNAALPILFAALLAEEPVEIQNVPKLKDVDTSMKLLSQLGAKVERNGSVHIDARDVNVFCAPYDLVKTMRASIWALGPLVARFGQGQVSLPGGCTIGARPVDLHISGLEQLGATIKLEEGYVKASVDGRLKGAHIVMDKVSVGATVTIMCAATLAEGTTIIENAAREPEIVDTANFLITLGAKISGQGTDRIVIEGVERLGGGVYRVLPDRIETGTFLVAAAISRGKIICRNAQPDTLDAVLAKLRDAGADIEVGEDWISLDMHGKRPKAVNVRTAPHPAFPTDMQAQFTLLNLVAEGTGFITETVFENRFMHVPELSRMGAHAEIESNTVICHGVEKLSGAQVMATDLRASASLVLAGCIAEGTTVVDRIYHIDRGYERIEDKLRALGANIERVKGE

In series [2] the target is T1, UDP-N-acetylglucosamine 1-carboxyvinyltransferase (Escherichia coli K-12, UniProt P0A749). The series is described as follows: Inhibition of recombinant Escherichia coli MurA expressed in Escherichia coli NiCo21 using UNAG and PEP as substrate preincubated for 30 mins in presence of UNAG followed by PEP substrate addition and measured after 15 mins by malachite green based colorimetric assay.
T1 sequence (P0A749 whole entry): as above

A short description of series [3]: Thiol reactivity of compound at pH 7.4 buffer assessed as fold decrease by measuring second order rate constant at 100 uM and measured for 4 hrs every 5 mins in presence of DTNB and TCEP by microplate reader analysis relative to Iodoacetamide. The format is physicochemical. Conditions: pH 7.4, 4 h.
A short description of series [4]: Thiol reactivity of compound at pH 7.4 buffer at 100 uM and measured for 4 hrs every 5 mins in presence of DTNB and TCEP by microplate reader analysis. Type of series: physicochemical. To be noted: pH 7.4, 4 h.
The target in series [5] is UDP-N-acetylglucosamine 1-carboxyvinyltransferase (Escherichia coli K-12) (UniProt P0A749). The series is described as follows: Irreversible inhibition of recombinant Escherichia coli MurA expressed in Escherichia coli NiCo21 using UNAG and PEP as substrate assessed as second-order rate constant for enzyme inactivation, ratio of Kinact/Ki preincubated for 30 mins in presence of UNAG followed by 100 fold dilution and PEP substrate addition and measured after 15 mins by malachite green based colorimetric assay. Conditions: time 45.0 min.

Series [6] concerns Staphylococcus aureus. The series is described as follows: Antibacterial activity against Staphylococcus aureus ATCC 29213 assessed as bacterial growth inhibition at <= 128 ug/ml incubated for 24 hrs by broth dilution method. Type of series: functional, organism-based. Conditions: dose <= 128.0 µg/ml.
The test system of series [7] is Escherichia coli. In words: Antibacterial activity against Escherichia coli ATCC 25922 assessed as bacterial growth inhibition at <=128 ug/ml incubated for 24 hrs by broth dilution method. Type of series: functional, organism-based. Conditions: dose <= 128.0 µg/ml. A general note: Broth dilution looks for growth in wells or tubes with falling amounts of substance.

Series [8] has as its target UDP-N-acetylglucosamine 1-carboxyvinyltransferase (Escherichia coli K-12) (UniProt P0A749). The series is described as follows: Inhibition of recombinant Escherichia coli MurA expressed in Escherichia coli NiCo21 using UNAG and PEP as substrate and measured for 15 mins by malachite green based colorimetric assay.
The target of series [9] is T1, UDP-N-acetylglucosamine 1-carboxyvinyltransferase. In words: Inhibition of recombinant Escherichia coli MurA expressed in Escherichia coli NiCo21 using UNAG and PEP as substrate preincubated for 15 mins in presence of UNAG followed by PEP substrate addition and measured after 15 mins by malachite green based colorimetric assay.
Series [10] addresses UDP-N-acetylglucosamine 1-carboxyvinyltransferase (Escherichia coli K-12) (UniProt P0A749). The series is described as follows: Irreversible inhibition of recombinant Escherichia coli MurA expressed in Escherichia coli NiCo21 assessed as residual activity using UNAG and PEP as substrate at 400 uM preincubated for 30 mins in presence of UNAG followed by PEP substrate addition and measured after 15 mins by malachite green based colorimetric assay. Conditions: time 45.0 min.

The target is the same in series [11]. In words: Irreversible inhibition of recombinant Escherichia coli MurA expressed in Escherichia coli NiCo21 assessed as residual activity using UNAG and PEP as substrate at 400 uM preincubated for 30 mins in presence of UNAG followed by 100 fold dilution and PEP substrate addition and measured after 15 mins by malachite green based colorimetric assay. Conditions: time 45.0 min.

For series [12] the target is unchanged. In words: Binding affinity to UNAG activated recombinant Escherichia coli MurA Cys115 residue at 5 mM incubated for 30 mins in presence of UNAG by LC-MS/MS analysis.
Series [13] shares this target. In words: Inhibition of recombinant Escherichia coli MurA expressed in Escherichia coli NiCo21 assessed as residual activity using UNAG and PEP as substrate at 500 uM preincubated for 30 mins in presence of UNAG followed by PEP substrate addition and measured after 15 mins by malachite green based colorimetric assay. Conditions: time 45.0 min.
The subject of series [14] is Staphylococcus aureus. In words: Antibacterial activity against Staphylococcus aureus ATCC 29213 assessed as bacterial growth inhibition incubated for 24 hrs by broth dilution method. The format is functional.
For series [15], the system named is Escherichia coli. The series is described as follows: Antibacterial activity against Escherichia coli ATCC 25922 assessed as bacterial growth inhibition incubated for 24 hrs by broth dilution method. Type of series: functional.

≈ marks a conversion by molar mass, not a printed value. Calls of active or inactive are those of the source. No cut-off for these calls is given here.

Take `CC(=O)NC1CCCC2CCCCC21` (stereo not drawn): the Activity in [1] was determined as 96.1%.

Consider `O=C(CCl)N1CCC(N2CCC(Br)C2=O)C1` (stereo not drawn), for which the IC50 (in general, the concentration at which inhibition is half-maximal) in series [2] was 263 µM. The “fold change (FC)” value in [3] came out at 2. Moreover, the Drug metabolism entry in series [4] is “Metabolite_Detected”. Besides, the Ratio in series [5] was 2.99 10^-4/µM/min. Further, the outcome in the series with Staphylococcus aureus [6] and with Escherichia coli [7] was inactive.

In the case of `O=C(CCl)NC1CCCC2CCCCC21` (stereo not drawn), the figures for the IC50 in series [2] and in series [9] were 39 µM and 400 µM, respectively. Moreover, in [3], the “fold change (FC)” value is reported as 33. In series [4], the Drug metabolism result is listed as “Metabolite_Notdetected”. For the same molecule, in series [8], the inhibition result is “inactive”. Further, in series [10], the Activity was determined as 1.6%. The result (in series [11]; in the series on Staphylococcus aureus [6]; in the series on Escherichia coli [7]) was inactive. Moreover, the Ratio in [5] is 4.78 10^-3/µM/min. For the same molecule, in series [12], the outcome was Active.

With `O=C(CCl)N1CCN(CCC2CCCCC2)CC1`, the Activity in series [13] is 81%. In series [3], the “fold change (FC)” value worked out at 3. Moreover, the Drug metabolism entry in [4] is on record as “Metabolite_Detected”. Further, the figures for the MIC in the series on Staphylococcus aureus [14] and in the series on Escherichia coli [15] were 4 µg/mL (≈ 14.7 µM) and 16 µg/mL (≈ 58.6 µM), respectively.

On to `O=C(CCl)Nc1ccc2nsnc2c1`, for which the IC50 in [2] amounted to 287 µM. For the same molecule, the Drug metabolism result in series [4] was “Metabolite_Detected”. Further, the Ratio in series [5] was 4.84 10^-4/µM/min. The result with Staphylococcus aureus [6] and in the series with Escherichia coli [7] was inactive.

Consider `O=C(CCl)Nc1ccc(C2CCCCC2)cc1`, for which the Activity in [13] is 54%. In addition, in series [3], the “fold change (FC)” value came to 167. The Drug metabolism entry in series [4] is given as “Metabolite_Detected”. The outcome with Staphylococcus aureus [6] and with Escherichia coli [7] was inactive.

In the case of `O=C(CCl)Nc1nccs1`, in series [13], the Activity came to 55%. For the same molecule, the “fold change (FC)” value in series [3] is given as 4. Besides, in series [4], the Drug metabolism entry was “Metabolite_Detected”. The outcome in the series with Staphylococcus aureus [6] and in the series on Escherichia coli [7] was inactive.

Take `O=C(CCl)N1CCC(Sc2nccs2)CC1`: in series [2], the half-inhibitory concentration (IC50) is 195 µM. Further, in series [4], the Drug metabolism entry is listed as “Metabolite_Detected”. In series [5], the Ratio was 7.13 10^-3/µM/min. The outcome in the series with Staphylococcus aureus [6] and in the series on Escherichia coli [7] was inactive.
